Source: patent US12275684B2, “Methods for making and using endoxifen” (Atossa Therapeutics, Inc., priority 2017, dated 2025)

Assay: Placebo controlled, dose escalation pharmacokinetic study of oral (Z)-Endoxifen capsules (serum endoxifen; incl. accumulation ratios and dose linearity)
Assay type: in vivo, human
Set-up: Serum concentration, Maximum / Serum concentration, GeoMean / Serum concentration, Mean / Serum concentration, Median / terminal rate constant: unit not given here
Details: for AUC24hr / AUC to last time point / AUC(0-inf): in ng·h/mL
Source text: An objective of the study was to assess the safety and tolerability of oral (Z)-Endoxifen when administered […] orally as a capsule to healthy female volunteers. A secondary objective was to assess the pharmacokinetics of multiple doses of oral (Z)-Endoxifen in the subjects.
Generally, healthy female volunteers aged ≥18 years and ≤65 years were enrolled. 24 participants were enrolled in 3 cohorts and will be administered study drug orally. Three dose levels of orally administered (Z)-Endoxifen were investigated in 3 cohorts. In each cohort participants were randomized to receive an oral (Z)-Endoxifen or placebo in a blinded fashion. Enteric-resistant capsules used in the study were designed as delayed release capsules to resist rupture for at least 30 minutes, but typically, for about 2 hours, under gastric conditions and then open fully in intestinal fluid (DRCaps; Capsugel, a Lonza Company, USA). Enteric-resistant (Swedish Orange size Zero (0); Capsugel, USA) DRCaps capsules manually filled with 1, 2 or 4 mg of (Z)-endoxifen neat in compliance with GMP requirements were used. Placebo capsules contained microcrystalline cellulose an inert common capsule and tablet excipient.
Each cohort enrolled 8 participants, with 6 participants receiving (Z)-Endoxifen 1 mg capsules orally at 1 mg (Cohort 1), 2 mg (Cohort 2) or 4 mg (Cohort 3) doses and 2 participants receiving matching placebo capsules. In Cohort 1 (Dose Level=1 mg) two participants (sentinels) were dosed 24 hours prior to the remaining participants. One sentinel was dosed with (Z)-Endoxifen and the other with placebo. The remaining six participants in Cohort 1 were dosed as no safety concerns were identified in the sentinel participants. The non-sentinel participants in Cohort 1 were admitted to the clinical research facility at least one day later than the sentinels. There were no sentinels in Cohorts 2 and 3.
Participant engagement in this study was for a period of 56 days. These included a 28 day screening period, and a 7 day post treatment period for Pharmacokinetic (PK) sampling. There were two confinement periods, one at the beginning and one at the end of the dosing periods. Participants were confined to the clinical facility on Days-1 through to Day 2 and Days 21 and 22. If participants were to experience any clinically significant adverse events during the study, they would have been required to remain in the clinical facility for further observation at the discretion of the Principal Investigator (PI).
Healthy female volunteers were screened within 28 days prior to commencement of dosing. Participants were admitted to the clinical facility on Day-1 for up to 3 days. The first dose of (Z)-Endoxifen or placebo capsules was administered on Day 1. Following completion of all safety assessments and sampling for PK analyses, participants were discharged from the clinical facility on Day 2. The first dose on Day 1 was followed by a 6-day treatment free period (Days 2-7). Each participant returned to the clinical facility for PK blood draws and safety assessments during the treatment free period on study Days 4 and 6. On Day 8 participants commenced daily administration of (Z)-Endoxifen capsules or placebo capsules for 14 consecutive days (Days 8-21). Participants were supplied with study drug capsules and asked to self administer daily. Participants visited the clinical facility on Days 11, 14 and 17, prior to dose administration, for PK blood draws and safety assessments. On the morning of Day 21 each participant returned to the clinical facility prior to dose administration and were confined to the facility until Day 22 to allow for the collection of PK blood draws and safety assessments. The Day 21 dose was the last administration of study drug. Participants were discharged from the clinical facility on Day 22 and returned for PK blood draws and safety assessments on study Days 24, 26, and 28. […]

[1] = Day 1, dose 4 mg oral, Maximum, N 6
[2] = Day 1, dose 4 mg oral, Minimum, N 6
[3] = Day 21, dose 2 mg oral once daily, GeoMean, N 6
[4] = Day 21, dose 2 mg oral once daily, Maximum, N 6
[5] = Day 21, dose 2 mg oral once daily, Mean, N 6
[6] = Day 21, dose 2 mg oral once daily, Median, N 6
[7] = Day 21, dose 2 mg oral once daily, Minimum, N 6
[8] = Day 21, dose 4 mg oral once daily, GeoMean, N 6
[9] = Day 21, dose 4 mg oral once daily, Maximum, N 6
[10] = Day 21, dose 4 mg oral once daily, Mean, N 6
[11] = Day 21, dose 4 mg oral once daily, Median, N 6
[12] = Day 21, dose 4 mg oral once daily, Minimum, N 6

CC/C(=C(\c1ccc(O)cc1)c1ccc(OCCNC)cc1)c1ccccc1 [(Z)-Endoxifen, (Z)-4-(1-(4-(2-(methylamino)ethoxy)phenyl)-2-phenylbut-1-enyl) phenol]
CL/F, Min (Day 1, 1 mg, N = 5): 1.35 L/h | Cmax, Max (Day 1, 1 mg, N = 5): 12.0 ng/mL | Cmax, Min (Day 1, 1 mg, N = 5): 7.0 ng/mL | Kel, GeoMean (Day 1, 1 mg, N = 5): 0.015 h⁻¹ | Kel, Max (Day 1, 1 mg, N = 5): 0.018 h⁻¹ | Kel, Mean (Day 1, 1 mg, N = 5): 0.015 h⁻¹ | Kel, Median (Day 1, 1 mg, N = 5): 0.015 h⁻¹ | Kel, Min (Day 1, 1 mg, N = 5): 0.013 h⁻¹ | Thalf, GeoMean (Day 1, 1 mg, N = 5): 45.6 h | Thalf, Max (Day 1, 1 mg, N = 5): 54.4 h | Thalf, Mean (Day 1, 1 mg, N = 5): 46.1 h | Thalf, Median (Day 1, 1 mg, N = 5): 47.2 h | Thalf, Min (Day 1, 1 mg, N = 5): 37.5 h | Tmax, Max (Day 1, 1 mg, N = 5): 8.08 h | Tmax, Min (Day 1, 1 mg, N = 5): 2.0 h | CL/F, GeoMean (Day 1, 2 mg, N 6): 1.85 L/h | CL/F, Maximum (Day 1, 2 mg, N 6): 2.65 L/h | CL/F, Mean (Day 1, 2 mg, N 6): 1.89 L/h | CL/F, Median (Day 1, 2 mg, N 6): 1.83 L/h | CL/F, Minimum (Day 1, 2 mg, N 6): 1.34 L/h | Cmax, Maximum (Day 1, 2 mg, N 6): 22.0 ng/mL | Cmax, Minimum (Day 1, 2 mg, N 6): 13.0 ng/mL | Kel, GeoMean (Day 1, 2 mg, N 6): 0.015 h⁻¹ | Kel, Maximum (Day 1, 2 mg, N 6): 0.018 h⁻¹ | Kel, Mean (Day 1, 2 mg, N 6): 0.015 h⁻¹ | Kel, Median (Day 1, 2 mg, N 6): 0.016 h⁻¹ | Kel, Minimum (Day 1, 2 mg, N 6): 0.010 h⁻¹ | Thalf, GeoMean (Day 1, 2 mg, N 6): 47.7 h | Thalf, Maximum (Day 1, 2 mg, N 6): 68.1 h | Thalf, Mean (Day 1, 2 mg, N 6): 49.0 h | Thalf, Median (Day 1, 2 mg, N 6): 44.0 h | Thalf, Minimum (Day 1, 2 mg, N 6): 37.8 h | Tmax, Minimum (Day 1, 2 mg, N 6): 3.00 h | terminal rate constant (Day 1, dose 4 mg oral, GeoMean, N 6): 0.017 | Cmax [1]: 62.0 ng/mL | Tmax [1]: 10.00 h | apparent terminal half life (t½) [1]: 56.0 h | terminal rate constant [1]: 0.022 | AUC24hr [1]: 1116 | AUC to last time point [1]: 3574 | AUC(0-inf) [1]: 4624 | terminal rate constant (Day 1, dose 4 mg oral, Mean, N 6): 0.017 | terminal rate constant (Day 1, dose 4 mg oral, Median, N 6): 0.017 | Cmax [2]: 14.0 ng/mL | Tmax [2]: 3.00 h | apparent terminal half life (t½) [2]: 31.6 h | terminal rate constant [2]: 0.012 | AUC24hr [2]: 258 | AUC to last time point [2]: 691 | AUC(0-inf) [2]: 736 | CL/F, GeoMean (Day 21, 1 mg, N = 5): 2.32 L/h | CL/F, Maximum (Day 21, 1 mg, N = 5): 4.03 L/h | CL/F, Mean (Day 21, 1 mg, N = 5): 2.49 L/h | CL/F, Median (Day 21, 1 mg, N = 5): 1.90 L/h | CL/F, Minimum (Day 21, 1 mg, N = 5): 1.57 L/h | Cmax, Maximum (Day 21, 1 mg, N = 5): 34.0 ng/mL | Cmax, Minimum (Day 21, 1 mg, N = 5): 14.0 ng/mL | Kel, GeoMean (Day 21, 1 mg, N = 5): 0.013 h⁻¹ | Kel, Maximum (Day 21, 1 mg, N = 5): 0.017 h⁻¹ | Kel, Mean (Day 21, 1 mg, N = 5): 0.014 h⁻¹ | Kel, Median (Day 21, 1 mg, N = 5): 0.014 h⁻¹ | Kel, Minimum (Day 21, 1 mg, N = 5): 0.011 h⁻¹ | Thalf, GeoMean (Day 21, 1 mg, N = 5): 51.7 h | Thalf, Maximum (Day 21, 1 mg, N = 5): 65.8 h | Thalf, Mean (Day 21, 1 mg, N = 5): 52.6 h | Thalf, Median (Day 21, 1 mg, N = 5): 49.3 h | Thalf, Minimum (Day 21, 1 mg, N = 5): 40.6 h | Tmax, Maximum (Day 21, 1 mg, N = 5): 8.42 h | Css (AUCtau/tau) [3]: 37.4 ng/mL | terminal rate constant [3]: 0.016 | Cmax [4]: 65.0 ng/mL | Css (AUCtau/tau) [4]: 49.1 ng/mL | Tmax [4]: 6.05 h | apparent terminal half life (t½) [4]: 50.8 h | terminal rate constant [4]: 0.021 | AUC24hr [4]: 1177 | Css (AUCtau/tau) [5]: 38.0 ng/mL | terminal rate constant [5]: 0.016 | Css (AUCtau/tau) [6]: 37.9 ng/mL | terminal rate constant [6]: 0.015 | Cmax [7]: 35.0 ng/mL | Css (AUCtau/tau) [7]: 29.8 ng/mL | Tmax [7]: 2.00 h | apparent terminal half life (t½) [7]: 33.0 h | terminal rate constant [7]: 0.014 | AUC24hr [7]: 716 | Css (AUCtau/tau) [8]: 72.7 ng/mL | terminal rate constant [8]: 0.016 | Cmax [9]: 178.0 ng/mL | Css (AUCtau/tau) [9]: 126.4 ng/mL | Tmax [9]: 10.00 h | apparent terminal half life (t½) [9]: 54.3 h | terminal rate constant [9]: 0.020 | AUC24hr [9]: 3034 | Css (AUCtau/tau) [10]: 85.1 ng/mL | terminal rate constant [10]: 0.016 | Css (AUCtau/tau) [11]: 102.9 ng/mL | terminal rate constant [11]: 0.015 | Cmax [12]: 42.0 ng/mL | Css (AUCtau/tau) [12]: 25.7 ng/mL | Tmax [12]: 2.00 h | apparent terminal half life (t½) [12]: 34.0 h | terminal rate constant [12]: 0.013 | AUC24hr [12]: 616
